From US10453555B2, “Parameterizing cell-to-cell regulatory heterogeneities via stochastic transcriptional profiles” (University of Virginia Patent Foundation, priority 2015, dated 2019)

How the values were obtained:
[1] = tested on: p110δ; assay: IC87114 inhibitor validation: pAkt immunoblotting after lysophosphatidic acid stimulation; type: cell-based, human; conditions: MCF10A-5E cells, 20 μM IC87114 pre-treatment for one hour, 10 μM lysophosphatidic acid for five minutes
Description: For p110δ inhibitor experiments, 20 μM IC87114 (Calbiochem) was added to the assay medium and replaced every four days. IC87114 inhibitor validation was performed as follows. MCF10A-5E cells were plated in 6-well dishes and cultured in serum-free medium overnight. Wells were pre-treated with or without 20 μM IC87114 (Calbiochem) for one hour and then stimulated with 10 μM lysophosphatidic acid (Sigma-Aldrich) for five minutes. Cells were lysed as previously described (Wang et al. (2011) Proc Natl Acad U S A 108(40):E803-812), and lysates were probed for pAkt levels by immunoblotting.
Immunoblotting was performed as follows. 30-50 μg of clarified cell extract was separated on an 8% or 10% SDS-PAGE gel and transferred to PVDF (Millipore). Membranes were blocked in 0.5×Odyssey blocking buffer (Licor) for one hour and incubated overnight at 4° C. in 0.5×Odyssey blocking buffer with 0.1% Tween containing one of the following primary antibodies: anti-p110δ (1:500; Santa Cruz Biotechnology) or anti-pAkt Ser473 (1:1000; Cell Signaling). Additionally, chicken anti-tubulin (1:20000; Abeam) was added to each primary solution as a loading control. […]

[2] = tested on: MCF10A-5E cells; assay: Proliferation of acini in 3D culture (phospho-Rb whole-mount immunofluorescence); type: cell-based, human; conditions: shGFP control cells + 20 μM IC87114, replaced every four days
Description: We next asked whether PIK3CD was specifically important for normal acinar morphogenesis. To eliminate the very-rare PIK3CD^hi subpopulation, p110δ was perturbed by two independent methods: RNA interference and the p110δ-specific small-molecule inhibitor, IC87114 (Knight et al. (2006) Cell 125(4):733-747) (FIG. 18A and FIG. 21). […] Primers were annealed at 95° C. in annealing buffer (10 mM Tris-HCl, 100 mM NaCl, 1 mM EDTA) for 5 min on a thermocycler and cooled slowly to room temperature by unplugging the instrument. Annealed primers were phosphorylated in vitro with T4 polynucleotide kinase (New England Biolabs) and then cloned into pLKO.1 puro (Moffat et al. (2006) Cell 124(6):1283-1298) that had been digested with EcoRI and AgeI. Lentiviruses were packaged and transduced into MCF10A-5E cells and selecting with 2 μg/ml puromycin as previously described (Wang et al. (2011) Proc Natl Acad Sci U S A 108(40):E803-812) to produce shGFP and shPIK3CD cell lines. MCF10A (shGFP, and shPIK3CD) cell lines were cultured in 3D as previously described (Debnath et al. (2003) Methods 30(3):256-268). […]
Whole-mount immunofluorescence of shGFP and shPIK3CD cultures was performed as previously described (Wang et al. (2011) Proc Natl Acad U S A 108(40):E803-812). […] Samples were scored for pRb-positive acini as before (Wang et al. (2011) Proc Natl Acad Sci U S A 108(40):E803-812).

## Cc1ccccc1-n1c(Cn2cnc3c(N)ncnc32)nc2cccc(C)c2c1=O [IC87114]
[1]
  Akt phosphorylation (pAkt Ser473 levels) stimulated by p110δ: inhibits Akt phosphorylation
[2]
  proliferating (pRb-positive) acini: sustained proliferation
